# Columns and labels:
# MIN6 cell [1] = test: Insulin secretion promoting activity for cultured β-cells, in the presence of 14.5 mmol/L glucose; type: cell-based; conditions: none: 148.4
# Procedure: (§1) Further, the insulin secretion of the MIN6 cell is prompted in response to sulfonylurea-agents such as glibenclamide, which are used as a medicament for treatment of diabetes (Cellular Signalling, vol. 5, p. 777-786, 1993).
# Culture of the MIN6 cells above and insulin secretion test utilizing the MIN6 cells were performed according to the methods described in Diabetologia, vol. 36, p. 1139-1145, 1993. The effect of a compound on the insulin secretion in the presence of 14.5 mmol/L glucose was determined by measuring insulin amounts in cell culture supernatants collected as follows. MIN6 cells cultured on a 24-well plate were washed twice by using 1 mL of Buffer A (119 mmol/L sodium chloride, 4.74 mmol/L potassium chloride, 2.54 mmol/L calcium chloride, 1.19 mmol/L magnesium sulfate, 1.19 mmol/L potassium dihydrogenphosphate, 10 mmol/L 2-[4-(2-hydroxyethyl)-1-piperazinyl]ethanesulfonic acid, and 0.1% bovine serum albumin, pH 7.3) containing 2 mmol/L glucose, and then were incubated in 1 mL of Buffer A containing 2 mmol/L glucose at 37° C. for 45 minutes. After the incubation, the culture supernatant was changed to Buffer A (0.9 mL) containing a test compound at various concentrations and 2 mmol/L glucose, and the cells were further incubated at 37° C. for 15 minutes. […]
# MIN6 cell [2] = test: Insulin secretion promoting activity for cultured β-cells, in the presence of 5 mmol/L glucose; type: cell-based; conditions: for Insulin secretion amount (ng/mL) Avg: 5 mmol/L glucose, None: 51.2; for secretion promoting action at low glucose concentration (in words): glucose at a low concentration (5 mmol/L)
# Procedure: as §1
# Separately, the effect of a compound on the insulin secretion in the presence of 5 mmol/L glucose was determined by measuring insulin amounts in cell culture supernatants collected as follows. MIN6 cells cultured on a 24-well plate were washed twice by using 1 mL of Buffer A containing 5 mmol/L glucose, and then the culture supernatant was changed to Buffer A (0.9 mL) containing a test compound at various concentrations and 5 mmol/L glucose. Then, the cells were incubated at 37° C. for 45 minutes (final glucose concentration: 5 mmol/L), and the culture supernatant was collected.
# After the culture supernatant was diluted with a phosphate buffer containing 1% bovine serum albumin, 0.1% Tween 20, 0.12% disodium ethylenediaminetetraacetate (EDTA), and 0.1% sodium azide, antibody-reactive insulin secreted in the culture supernatant was qualified by enzyme immunoassay or radio immunoassay. The insulin level was indicated as the amount of human insulin (ng/mL). The results are indicated as average (avg) of 3 to 4 samples with standard error values (se).
SMILES,Insulin secretion amount (ng/mL) avg (MIN6 cell [1]; drug concentration 10 μmol/L),Insulin secretion amount (ng/mL) Avg (MIN6 cell [2]; drug concentration 10 μmol/L),secretion promoting action at low glucose concentration (in words) (MIN6 cell [2]),Insulin secretion amount (ng/mL) avg (MIN6 cell [1]; drug concentration 0.1 μmol/L),Insulin secretion amount (ng/mL) Avg (MIN6 cell [2]; drug concentration 0.1 μmol/L)
CC(C)[C@H]1CC[C@H](C(=O)N[C@H](Cc2ccccc2)C(=O)O)CC1 [AY4166],195.1 ng/mL,170.8 ng/mL,showed marked secretion promoting action,–,–
COc1ccc(Cl)cc1C(=O)NCCc1ccc(S(=O)(=O)NC(=O)NC2CCCCC2)cc1 [Glibenclamide],–,–,showed marked secretion promoting action,177.8 ng/mL,156.8 ng/mL
